Laboratory results published in paper PMC10498358 (2023).

How the values were obtained:
[1] = tested on: pApU (poly A–poly U) (RNA, polymer) A/U; assay: UV thermal denaturation at 260 nm; details: I = 0.05 M (sodium cacodylate); sodium cacodylate buffer, pH 7.0; r = [compound]/[RNA] = 0.3; error ±0.5 °C; per base
[2] = tested on: p(dAdT)2 (poly dAdT–poly dAdT) (DNA, polymer) AT; assay: fluorescence titration, Scatchard fit; details: I = 0.05 M (sodium cacodylate); sodium cacodylate buffer, pH 7.0; polynucleotide concentration as phosphates; n fixed at 0.2; per base
[3] = tested on: pApU (poly A–poly U) (RNA, polymer) A/U; assay: fluorescence titration, Scatchard fit; details: I = 0.05 M (sodium cacodylate); sodium cacodylate buffer, pH 7.0; polynucleotide concentration as phosphates; n fixed at 0.2; per base
[4] = tested on: p(dGdC)2 (poly dGdC–poly dGdC) (DNA, polymer) GC; assay: fluorescence titration, Scatchard fit; details: I = 0.05 M (sodium cacodylate); sodium cacodylate buffer, pH 7.0; polynucleotide concentration as phosphates; n fixed at 0.2; per base

ΔTm [1] | log K [2] | log K [3] | log K [4] | Compound
+1 °C | 7.4 | 6.4 | 5.7 | COc1c2cc(N)cc1Cc1cc(C(C)(C)C)cc(c1OCc1nccn1C)Cc1cc(NC(=O)CCCc3ccc4ccc5cccc6ccc3c4c56)cc(c1OC)Cc1cc(C(C)(C)C)cc(c1OCc1nccn1C)C2
-1 °C | 6.6 | 7.2 | 6.9 | COc1c2cc(NC(=O)CCCc3ccc4ccc5cccc6ccc3c4c56)cc1Cc1cc(C(C)(C)C)cc(c1OCc1nccn1C)Cc1cc(NC(=O)CCCc3ccc4ccc5cccc6ccc3c4c56)cc(c1OC)Cc1cc(C(C)(C)C)cc(c1OCc1nccn1C)C2
